# Measurements as given in patent publication US20190000860A1, “USE OF COMPOSITIONS MODULATING CHROMATIN STRUCTURE FOR GRAFT VERSUS HOST DISEASE (GVHD)” (Dana-Farber Cancer Institute, Inc., priority 2014, published 2019).
# How the values were obtained:
# germinal center B cells = test: Germinal center B cells in cGVHD mice; assay type: in vivo, mouse (B10.BR recipients); conditions: for germinal center B cells in the spleens: Table 3 experiment, Bcl6 peptidomimetic every day, Day 28-56 (FIG. 12)
# Experimental: (§1) B10.BR recipients were conditioned with cytoxan on days −3 and −2 (120 mg/kg/day i.p.). On day −1, recipients received TBI by x-ray (8.3 Gy). B6 donor BM was T-cell depleted with anti-Thy1.2 mAb followed by rabbit complement. T-cells were purified from spleens by incubation with biotin-labeled anti-CD19, anti-CD11b, anti-CD11c, anti-NK1.1 and anti-γδTCR (eBioscience), followed by strepavidin beads and depletion with magnetic column (StemCell Technologies). On day 0, recipients received 10×10^6 T cell depleted BM cells with or without allogeneic spleen purified T cells (0.075-0.1×106), Weights of individual mice were recorded weekly. Where indicated, recipients in BM and T cell groups were given EZH2 inhibitor (either JQ-EZH2-5 (75 μg/animal/3 times a week) or JQ1 (50 μg/animal/Daily) in 10% Hydroxypropyl-beta-cyclodextrin and DMSO in a 9:[…]) in PBS.
# (§2) In particular, B10.BR mice were conditioned with 120 mg/Kg of cyclophosphamide on day −3 and −2 and subjected to total body irradiation (830X) on day −1. On Day 0 mice were transplanted with wild type B6 bone marrow with or without splenocytes or purified splenic T cells. Day 28 following transplantation, mice were either given vehicle control or JQ5 (75 mg/Kg 3× a week) until day 56. On Day 60 mice were subjected to forced oscillation technique on the Scireq Flexivent system. Tissues were harvested and analyzed for collagen deposition by trichrome staining, Ig deposition, presence of germinal centers, germinal center B cells, and T follicular helper cells.
# Pulmonary function tests were performed on animals treated with Bcl 79-6. The presence of Germinal Center B cells and fibrosis in lungs were also assessed. B10.BR mice were conditioned with 120 mg/Kg of cyclophosphamide on day −3 and −2 and subjected to total body irradiation (830X) on day −1. […] Tissues were harvested and analyzed for collagen deposition by trichrome staining, Ig deposition, presence of germinal centers, germinal center B cells and T follicular helper cells.
# mice with cGVHD [1] = test: Pulmonary function tests (lung resistance, elastance, compliance; forced oscillation technique, Scireq Flexivent); assay type: in vivo, mouse (B10.BR recipients)
# Experimental: B10.BR recipients were conditioned with cytoxan on days −3 and −2 (120 mg/kg/day i.p.). On day −1, recipients received TBI by x-ray (8.3 Gy). B6 donor BM was T-cell depleted with anti-Thy1.2 mAb followed by rabbit complement. T-cells were purified from spleens by incubation with biotin-labeled anti-CD19, anti-CD11b, anti-CD11c, anti-NK1.1 and anti-γδTCR (eBioscience), followed by strepavidin beads and depletion with magnetic column (StemCell Technologies). On day 0, recipients received 10×10^6 T cell depleted BM cells with or without allogeneic spleen purified T cells (0.075-0.1×106), Weights of individual mice were recorded weekly. Where indicated, recipients in BM and T cell groups were given EZH2 inhibitor (either JQ-EZH2-5 (75 μg/animal/3 times a week) or JQ1 (50 μg/animal/Daily) in 10% Hydroxypropyl-beta-cyclodextrin and DMSO in a 9:1 ratio) or Bcl 79-6 (50 μg/animal/three times a week) in PBS.
# as §2
# as §2, with “Pulmonary function tests were performed on animals treated with Bcl 79-6. The presence of Germinal Center B cells and fibrosis in lungs were also assessed.” for “In particular,”, “Wild Type” for “wild type”, “Bone” for “bone”, “Bcl6 79-6 (50” for “JQ5 (75”, “Daily)” for “3× a week)”, “cells” for “cells,”
# mice with cGVHD [2] = assay type: in vivo; conditions: for survival after 60 days: mice given BM and T-cells, treatment began 28 days post-transplant (Day 28-56), JQ5 or UNC1999 75 mg/Kg 3 days a week, Bcl6 peptidomimetic every day (Table 3, FIG. 8)
# Experimental: as §1, with “([…])” for “(75 μg/animal/3 times a week)”
# Animals in this experiment were transplanted with wild-type BM and T-cells and then treated with either Vehicle, EZH2 inhibitor (JQ5 or UNC1999) or Bcl6 inhibitor. Administration of UNC1999 was toxic, resulting in less than 40% survival 63 days post-transplant. (FIG. 8).
# mice with cGVHD [3] = test: Pulmonary function tests (lung resistance, elastance, compliance; forced oscillation technique, Scireq Flexivent); assay type: in vivo, mouse (B10.BR recipients); remark: listed apart in the source
# mice with cGVHD [4] = test: Collagen deposition in the lungs (trichrome staining); assay type: in vivo, mouse (B10.BR recipients); conditions: for collagen deposition in the lungs vs Vehicle-treated mice: Table 3 experiment, treatment Day 28-56, JQ5 75 mg/Kg 3 days a week, Bcl6 peptidomimetic every day (FIG. 10, 13)
# Experimental: as §1, §2
# as §2, with “Pulmonary function tests were performed on animals treated with Bcl 79-6. The presence of Germinal Center B cells and fibrosis in lungs were also assessed.” for “In particular,”, “Wild Type” for “wild type”, “Bone” for “bone”, “Bcl6 79-6 (50” for “JQ5 (75”, “Daily)” for “3× a week)”, “cells” for “cells,”
# [5] = Table 6 experiment, Bcl6 79-6 50 mg/Kg Daily, day 28 until day 56 (FIG. 19), 50 mg/kg
# [6] = Table 6 experiment, Bcl6 79-6 50 mg/Kg Daily, day 28 until day 56, measured Day 60 (FIG. 19)
# [7] = additional experiments (not shown), JQ1 treatment
SMILES,germinal center B cells in the spleens (germinal center B cells),germinal center B cells in the spleens (germinal center B cells; listed as Bcl6 79-6),Germinal Center B cells (germinal center B cells; [5]),"pulmonary function (lung resistance, elastance and compliance) vs Vehicle-treated mice (mice with cGVHD [1]; Table 3 experiment, treatment Day 28-56, JQ5 75 mg/Kg 3 days a week, Bcl6 peptidomimetic every day (FIG. 9, 11))",survival after 60 days (mice with cGVHD [2]) [%],lung compliance (mice with cGVHD [3]; [6]),lung elastance (mice with cGVHD [3]; [6]),lung resistance (mice with cGVHD [3]; [6]),pulmonary function (mice with cGVHD [3]; [6]),collagen deposition in the lungs vs Vehicle-treated mice (mice with cGVHD [4]),collagen deposition in the lungs vs Vehicle-treated mice (mice with cGVHD [4]; listed as Bcl6 79-6),collagen in Trichrome staining (lungs) (mice with cGVHD [4]; [5]),compliance in pulmonary function tests vs vehicle-treated control animals (mice with cGVHD [1]; [7]),elastance in pulmonary function tests vs vehicle-treated control animals (mice with cGVHD [1]; [7]),resistance in pulmonary function tests vs vehicle-treated control animals (mice with cGVHD [1]; [7]),"pulmonary function vs Vehicle-treated control mice (mice with cGVHD [3]; Table 4 experiment, JQ1 50 mg/Kg Daily, Day 28-56 (FIG. 14), 50 mg/kg)","collagen deposition in the lungs vs Vehicle-treated control mice (mice with cGVHD [4]; Table 4 experiment, JQ1 50 mg/Kg Daily, Day 28-56 (FIG. 15), 50 mg/kg)","survival 63 days post-transplant (mice with cGVHD [2]; mice given wild-type BM and T-cells, 75 mg/KG UNC1999 3 days a week, Day 28-56 (Table 3, FIG. 8))"
O=C(O)CC(C(=O)O)N1C(=O)/C(=C2/C(=O)Nc3ccc(Br)cc32)SC1=S (stereo not shown) [79-6],reduction,decreased germinal center B cells,decreased Germinal Center B cells,improved pulmonary function,100,increase,decrease,decrease,Restored pulmonary function,decreased,decreased collagen deposition,decreased collagen,,,,,,
Cc1sc2c(c1C)C(c1ccc(Cl)cc1)=N[C@@H](CC(=O)OC(C)(C)C)c1nnc(C)n1-2 [JQ1],,,,,,,,,,,,,significantly increased,decreased,decreased,improves pulmonary function,decreased collagen deposition,
CCCc1cc(C)[nH]c(=O)c1CNC(=O)c1cc(-c2ccc(N3CCN(C(C)C)CC3)nc2)cc2c1cnn2C(C)C [UNC1999],,,,,< 40,,,,,,,,,,,,,less than 40%
